According to the supplement of paper PMC11061612:

What was measured:
Carboplatin = compound: C1CC(C1)(C(=O)[O-])C(=O)[O-].N.N.[Pt+2] [Carboplatin]; details: max 10 µM
Outline: (§1)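 In 1536-well plates, cancer cell lines in 7.5 μl DMEM/F12 or RPMI with 10% FBS spent 24 hours at 37°C and 5% CO2 and were then dosed for 72 hours with final DMSO typically 0.2%. Viability was read by CellTiter-Glo 2.0 luminescence and scaled between blank-well and DMSO-well means. The single-agent IC50 was fitted from dose responses using a logistic curve in a non-linear mixed effects model, and that logistic curve had two parameters.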

AZD5363 = compound: C1CN(CCC1(C(=O)N[C@@H](CCO)C2=CC=C(C=C2)Cl)N)C3=NC=NC4=C3C=CN4 [AZD5363]; details: max 10 µM
Outline: as §1

AZD1775 = compound: C=CCn1c(=O)c2cnc(Nc3ccc(N4CCN(C)CC4)cc3)nc2n1-c1cccc(C(C)(C)O)n1 [AZD1775]; details: max 3 µM
Outline: as §1

Trametinib = compound: CC(=O)Nc1cccc(-n2c(=O)n(C3CC3)c(=O)c3c(Nc4ccc(I)cc4F)n(C)c(=O)c(C)c32)c1 [Trametinib]; details: max 1 µM
Outline: as §1

Paclitaxel = compound: CC(=O)O[C@H]1C(=O)[C@@]2(C)[C@H]([C@H](OC(=O)c3ccccc3)[C@]3(O)C[C@H](OC(=O)[C@H](O)[C@@H](NC(=O)c4ccccc4)c4ccccc4)C(C)=C1C3(C)C)[C@]1(OC(C)=O)CO[C@@H]1C[C@@H]2O [Paclitaxel]; details: max 3 µM
Outline: as §1

Palbociclib = compound: CC(=O)c1c(C)c2cnc(Nc3ccc(N4CCNCC4)cn3)nc2n(C2CCCC2)c1=O [Palbociclib]; details: max 10 µM
Outline: as §1

AZD1390 = compound: CC(C)n1c(=O)n(C)c2cnc3cc(F)c(-c4ccc(OCCCN5CCCCC5)nc4)cc3c21 [AZD1390]; details: max 0.3 µM
Outline: as §1

Venetoclax = compound: CC1(C)CCC(CN2CCN(c3ccc(C(=O)NS(=O)(=O)c4ccc(NCC5CCOCC5)c([N+](=O)[O-])c4)c(Oc4cnc5[nH]ccc5c4)c3)CC2)=C(c2ccc(Cl)cc2)C1 [Venetoclax]; details: max 1 µM
Outline: as §1

Dasatinib = compound: CC1=C(C(=CC=C1)Cl)NC(=O)C2=CN=C(S2)NC3=CC(=NC(=N3)C)N4CCN(CC4)CCO [Dasatinib]; details: max 2 µM
Outline: as §1

SG3199 = compound: CC1=CN2[C@@H](C1)C=NC3=CC(=C(C=C3C2=O)OC)OCCCCCOC4=C(C=C5C(=C4)N=C[C@@H]6CC(=CN6C5=O)C)OC [SG3199]; details: max 0.001 µM
Outline: as §1

AZD2811 = compound: CCN(CCO)CCCOc1ccc2c(Nc3cc(CC(=O)Nc4cccc(F)c4)[nH]n3)ncnc2c1 [AZD2811]; details: max 1 µM
Outline: as §1

SN-38 = compound: CCc1c2c(nc3ccc(O)cc13)-c1cc3c(c(=O)n1C2)COC(=O)[C@]3(O)CC [SN-38]; details: max 0.3 µM
Outline: as §1

AZD0156 = compound: CN(C)CCCOc1ccc(-c2ccc3ncc4c(c3c2)n(C2CCOCC2)c(=O)n4C)cn1 [AZD0156]; details: max 3 µM
Outline: as §1

AZD4320 = compound: CN(CC[C@H](CSC1=CC=CC=C1)NC2=C(C=C(C=C2)S(=O)(=O)NC(=O)C3=CC=C(C=C3)N4CCC(CC4)[C@H](C5=CC=CC=C5C6=CC=C(C=C6)Cl)O)S(=O)(=O)C(F)(F)F)CCO [AZD4320]; details: max 1 µM
Outline: as §1

Alisertib = compound: COc1cc(Nc2ncc3c(n2)-c2ccc(Cl)cc2C(c2c(F)cccc2OC)=NC3)ccc1C(=O)O [Alisertib]; details: max 10 µM
Outline: as §1

Etoposide = compound: COc1cc([C@@H]2c3cc4c(cc3[C@@H](O[C@@H]3O[C@@H]5CO[C@@H](C)O[C@H]5[C@H](O)[C@H]3O)[C@H]3COC(=O)[C@H]23)OCO4)cc(OC)c1O [Etoposide]; details: max 10 µM
Outline: as §1

Gefitinib = compound: COc1cc2ncnc(Nc3ccc(F)c(Cl)c3)c2cc1OCCCN1CCOCC1 [Gefitinib]; details: max 10 µM
Outline: as §1

Prexasertib = compound: COc1cccc(OCCCN)c1-c1cc(Nc2cnc(C#N)cn2)n[nH]1 [Prexasertib]; details: max 1 µM
Outline: as §1

Doxorubicin = compound: COc1cccc2c1C(=O)c1c(O)c3c(c(O)c1C2=O)C[C@@](O)(C(=O)CO)C[C@@H]3O[C@H]1C[C@H](N)[C@H](O)[C@H](C)O1 [Doxorubicin]; details: max 1 µM
Outline: as §1

AZD5153 = compound: COc1nnc2ccc(N3CCC(c4ccc(OCCN5CCN(C)C(=O)[C@H]5C)cc4)CC3)nn12 [AZD5153]; details: max 1 µM
Outline: as §1

Lapatinib = compound: CS(=O)(=O)CCNCc1ccc(-c2ccc3ncnc(Nc4ccc(OCc5cccc(F)c5)c(Cl)c4)c3c2)o1 [Lapatinib]; details: max 10 µM
Outline: as §1

AZD8186 = compound: C[C@@H](Nc1cc(F)cc(F)c1)c1cc(C(=O)N(C)C)cc2c(=O)cc(N3CCOCC3)oc12 [AZD8186]; details: max 10 µM
Outline: as §1

Crizotinib = compound: C[C@@H](Oc1cc(-c2cnn(C3CCNCC3)c2)cnc1N)c1c(Cl)ccc(F)c1Cl [Crizotinib]; details: max 10 µM
Outline: as §1

Savolitinib = compound: C[C@@H](c1ccc2nccn2c1)n1nnc2ncc(-c3cnn(C)c3)nc21 [Savolitinib]; details: max 1 µM
Outline: as §1

AZD6738 = compound: C[C@@H]1COCCN1C2=NC(=NC(=C2)C3(CC3)[S@](=N)(=O)C)C4=C5C=CNC5=NC=C4 [AZD6738]; details: max 10 µM
Outline: as §1

AZD5991 = compound: Cc1c2c(nn1C)CSCc1cc(n(C)n1)CSc1cc(c3ccccc3c1)OCCCc1c(C(=O)O)n(C)c3c-2c(Cl)ccc13 [AZD5991]; details: max 1 µM
Outline: as §1

AZD7648 = compound: Cc1cc2ncnn2cc1Nc1ncc2c(n1)n(C1CCOCC1)c(=O)n2C [AZD7648]; details: max 10 µM
Outline: as §1

Taselisib = compound: Cc1nc(-c2cn3c(n2)-c2ccc(-c4cnn(C(C)(C)C(N)=O)c4)cc2OCC3)n(C(C)C)n1 [Taselisib]; details: max 10 µM
Outline: as §1

Selumetinib = compound: Cn1cnc2c(F)c(Nc3ccc(Br)cc3Cl)c(C(=O)NOCCO)cc21 [Selumetinib]; details: max 10 µM
Outline: as §1

SRA737 = compound: N#Cc1cnc(Nc2cc(NC[C@H]3CNCCO3)c(C(F)(F)F)cn2)cn1 [SRA737]; details: max 10 µM
Outline: as §1

MK-2206 = compound: NC1(c2ccc(-c3nc4ccn5c(=O)[nH]nc5c4cc3-c3ccccc3)cc2)CCC1 [MK-2206]; details: max 10 µM
Outline: as §1

Gemcitabine = compound: Nc1ccn([C@@H]2O[C@H](CO)[C@@H](O)C2(F)F)c(=O)n1 [Gemcitabine]; details: max 0.3 µM
Outline: as §1

[1] = compound: O=C(Nc1ccc2[nH]nc(-c3ccncc3)c2c1)[C@@H]1CCN(CC(=O)N2CCN(c3ccc(-c4ncccn4)cc3)CC2)C1; details: max 5 µM
Outline: as §1

Olaparib = compound: O=C(c1cc(Cc2n[nH]c(=O)c3ccccc23)ccc1F)N1CCN(C(=O)C2CC2)CC1 [Olaparib]; details: max 10 µM
Outline: as §1

5-Fluorouracil = compound: O=c1[nH]cc(F)c(=O)[nH]1 [5-Fluorouracil]; details: max 20 µM
Outline: as §1

Cell Line	IC50, cell viability 72 h (Carboplatin)	IC50, cell viability 72 h (AZD5363)	IC50, cell viability 72 h (AZD1775)	IC50, cell viability 72 h (Trametinib)	IC50, cell viability 72 h (Paclitaxel)	IC50, cell viability 72 h (Palbociclib)	IC50, cell viability 72 h (AZD1390)	IC50, cell viability 72 h (Venetoclax)	IC50, cell viability 72 h (Dasatinib)	IC50, cell viability 72 h (SG3199)	IC50, cell viability 72 h (AZD2811)	IC50, cell viability 72 h (SN-38)	IC50, cell viability 72 h (AZD0156)	IC50, cell viability 72 h (AZD4320)	IC50, cell viability 72 h (Alisertib)	IC50, cell viability 72 h (Etoposide)	IC50, cell viability 72 h (Gefitinib)	IC50, cell viability 72 h (Prexasertib)	IC50, cell viability 72 h (Doxorubicin)	IC50, cell viability 72 h (AZD5153)	IC50, cell viability 72 h (Lapatinib)	IC50, cell viability 72 h (AZD8186)	IC50, cell viability 72 h (Crizotinib)	IC50, cell viability 72 h (Savolitinib)	IC50, cell viability 72 h (AZD6738)	IC50, cell viability 72 h (AZD5991)	IC50, cell viability 72 h (AZD7648)	IC50, cell viability 72 h (Taselisib)	IC50, cell viability 72 h (Selumetinib)	IC50, cell viability 72 h (SRA737)	IC50, cell viability 72 h (MK-2206)	IC50, cell viability 72 h (Gemcitabine)	IC50, cell viability 72 h [1]	IC50, cell viability 72 h (Olaparib)	IC50, cell viability 72 h (5-Fluorouracil)
Mo-T (Other Blood Carcinomas)	> 10 µM	> 10 µM	0.79 µM	> 1 µM	0.106 µM	> 10 µM	> 0.3 µM	> 1 µM	> 2 µM	> 0.001 µM	> 1 µM	0.044 µM	> 3 µM	0.671 µM	> 10 µM	1.09 µM	> 10 µM	> 1 µM	0.217 µM	0.343 µM	> 10 µM	> 10 µM	> 10 µM	> 1 µM	> 10 µM	> 1 µM	> 10 µM	> 10 µM	> 10 µM	> 10 µM	> 10 µM	0.0526 µM	> 5 µM	> 10 µM	> 20 µM
NCI-H522 (Lung Adenocarcinoma)	> 10 µM	> 10 µM	> 3 µM	> 1 µM	0.0595 µM	> 10 µM	> 0.3 µM	> 1 µM	> 2 µM	> 0.001 µM	> 1 µM	> 0.3 µM	> 3 µM	> 1 µM	> 10 µM	> 10 µM	> 10 µM	> 1 µM	> 1 µM	> 1 µM	> 10 µM	> 10 µM	> 10 µM	> 1 µM	> 10 µM	> 1 µM	> 10 µM	> 10 µM	> 10 µM	> 10 µM	> 10 µM	> 0.3 µM	> 5 µM	> 10 µM	> 20 µM
NCI-H1355 (Lung Adenocarcinoma)	> 10 µM	> 10 µM	> 3 µM	> 1 µM	0.0429 µM	> 10 µM	> 0.3 µM	> 1 µM	> 2 µM	> 0.001 µM	> 1 µM	> 0.3 µM	> 3 µM	> 1 µM	> 10 µM	> 10 µM	> 10 µM	0.0865 µM	> 1 µM	> 1 µM	> 10 µM	> 10 µM	> 10 µM	> 1 µM	8.56 µM	> 1 µM	> 10 µM	5.79 µM	> 10 µM	> 10 µM	> 10 µM	> 0.3 µM	> 5 µM	> 10 µM	> 20 µM
NCI-H1993 (Lung Adenocarcinoma)	> 10 µM	5.22 µM	1.34 µM	0.0894 µM	0.0112 µM	> 10 µM	> 0.3 µM	> 1 µM	> 2 µM	> 0.001 µM	> 1 µM	0.262 µM	> 3 µM	0.383 µM	> 10 µM	6.59 µM	> 10 µM	0.0625 µM	0.249 µM	> 1 µM	> 10 µM	> 10 µM	0.309 µM	0.022 µM	> 10 µM	> 1 µM	> 10 µM	4.52 µM	9.99 µM	> 10 µM	4.43 µM	0.0155 µM	3.25 µM	> 10 µM	9.36 µM
OE33 (Esophageal Adenocarcinoma)	> 10 µM	> 10 µM	1.59 µM	> 1 µM	0.736 µM	> 10 µM	> 0.3 µM	> 1 µM	> 2 µM	> 0.001 µM	> 1 µM	0.199 µM	> 3 µM	> 1 µM	> 10 µM	> 10 µM	> 10 µM	0.0435 µM	> 1 µM	> 1 µM	> 10 µM	> 10 µM	> 10 µM	> 1 µM	2.59 µM	> 1 µM	> 10 µM	> 10 µM	> 10 µM	7.72 µM	> 10 µM	0.17 µM	> 5 µM	> 10 µM	> 20 µM
